{"source": "patent US9339523B2", "about": "“Estrogenic extracts of Asparagus conchinchinensis (Lour.) Merr of the Liliaceae family and uses thereof” (BIONOVO, INC., priority 2007, dated 2016)", "key": {"[1]": {"tested_on": "TNF-RE tkLuc", "assay": "TNF-RE tkLuc reporter, ERα and ERβ not separated (Example 2)", "type": "cell-based, human", "settings": "for activation of TNF-RE tkLuc: antiestrogens, in contrast to E2", "procedure": "Plasmid Construction. […] ERβ mutants were created with QuikChange site-directed mutagenesis kits (Stratagene), by using oligonucleotides containing the mutation. The mutants were sequenced with Sequenase kits (Amersham Pharmacia) to verify the presence of the mutation.\n(§1) For experiments, cells were collected, transferred to a cuvette, and then electroporated with a Bio-Rad gene pulser as described previously using 3 μg of reporter plasmid and 1 μg of ERα or ERβ expression vectors. After electroporation, the cells were resuspended in media and plated at 1 ml/dish in 12-well multiplates. […] The concentration of hormone required to produce a half-maximal induction (EC50) or inhibition (IC50) of luciferase activity was calculated with the Prism curve-fitting program (Graph Pad Software, version 2.0b). […] The cells were plated in duplicate at a density of 25,000 cells/35-mm plate in tissue culture medium containing 3% stripped fetal bovine serum. […] After 8 days the cells were counted with a Coulter counter."}, "[2]": {"target": "T1, ERβ (Homo sapiens, UniProt Q92731)", "T1 sequence (Q92731 whole entry)": "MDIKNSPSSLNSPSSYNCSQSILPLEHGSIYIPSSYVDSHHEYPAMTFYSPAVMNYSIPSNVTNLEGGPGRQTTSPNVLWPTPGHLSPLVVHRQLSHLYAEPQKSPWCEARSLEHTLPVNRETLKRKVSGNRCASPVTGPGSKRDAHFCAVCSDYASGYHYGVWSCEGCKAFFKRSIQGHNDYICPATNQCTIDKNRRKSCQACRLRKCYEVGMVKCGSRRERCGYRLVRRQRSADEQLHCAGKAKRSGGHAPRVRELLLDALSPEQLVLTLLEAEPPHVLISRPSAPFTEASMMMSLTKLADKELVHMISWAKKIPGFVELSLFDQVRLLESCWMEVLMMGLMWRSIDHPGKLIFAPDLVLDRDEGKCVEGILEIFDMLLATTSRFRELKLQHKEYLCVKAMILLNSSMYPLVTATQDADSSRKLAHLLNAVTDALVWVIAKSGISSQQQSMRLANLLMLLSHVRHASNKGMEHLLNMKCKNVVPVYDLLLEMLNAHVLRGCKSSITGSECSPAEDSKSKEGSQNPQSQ", "assay": "TNF-RE tkLuc repression in U2OS cells with ERβ", "type": "cell-based", "set-up": "expressed in transfected cells; host or cells: U2OS (A10)", "procedure": "as §1\n(§2) The extracts (a and b) were than decanted and only the soluble material was used."}, "[3]": {"settings": "five years of therapy; cited from earlier work"}, "[4]": {"settings": "women at high risk for breast cancer; cited from earlier work"}, "[5]": {"target": "T1, ERβ", "assay": "ERE-tk-Luc luciferase assay in U2OS cells with ERβ", "type": "cell-based", "set-up": "expressed in transfected cells; host or cells: U2OS (human osteosarcoma)", "settings": "competition with the extract, FIG. 6", "procedure": "as §1, §2"}}}
{"molecule": "TNF-α", "values": [{"measurement": "activation of 3 copies of the TNF-RE (−125 to −82) upstream of the tk promoter", "setting": "[1]; TNF-RE tkLuc", "result": "5-10 fold"}]}
{"molecule": "C[C@]12CC[C@@H]3c4ccc(O)cc4CC[C@H]3[C@@H]1CC[C@@H]2O", "note": "[E2, estradiol]", "values": [{"measurement": "repression of TNF-α activation of TNF-RE tkLuc", "setting": "[1]; in the presence of ERα and ERβ", "result": "60-80%"}, {"measurement": "repression of TNF-α activation of TNF-RE", "setting": "[2]", "result": 100, "unit": "%"}]}
{"molecule": "C[C@]12CC[C@@H]3c4ccc(O)cc4C[C@@H](CCCCCCCCC[S+]([O-])CCCC(F)(F)C(F)(F)F)[C@H]3[C@@H]1CC[C@@H]2O", "note": "(stereo partly shown) [ICI 182, 780]", "values": [{"measurement": "effect on the repression induced by E2", "setting": "[1]; TNF-RE tkLuc", "result": "abolished the repression induced by E2"}, {"measurement": "activation of TNF-RE tkLuc", "setting": "[1]", "result": 2, "unit": "fold"}]}
{"molecule": "CC/C(=C(\\c1ccccc1)c1ccc(OCCN(C)C)cc1)c1ccccc1", "note": "[tamoxifen]", "values": [{"measurement": "effect on the repression induced by E2", "setting": "[1]; TNF-RE tkLuc", "result": "abolished the repression induced by E2"}, {"measurement": "activation of TNF-RE tkLuc", "setting": "[1]", "result": 2, "unit": "fold"}, {"measurement": "reduction of mortality from breast cancer", "setting": "[3]", "result": 22, "unit": "%"}, {"measurement": "reduction of the risk of recurrences", "setting": "[3]", "result": 42, "unit": "%"}, {"measurement": "reduction of the risk of primary invasive breast cancer", "setting": "[4]", "result": 49, "unit": "%"}]}
{"molecule": "O=C(c1ccc(OCCN2CCCCC2)cc1)c1c(-c2ccc(O)cc2)sc2cc(O)ccc12", "note": "[raloxifene]", "values": [{"measurement": "effect on the repression induced by E2", "setting": "[1]; TNF-RE tkLuc", "result": "abolished the repression induced by E2"}, {"measurement": "activation of TNF-RE tkLuc", "setting": "[1]", "result": 2, "unit": "fold"}, {"measurement": "effect on the extract's stimulation of the ERE with ERβ", "setting": "[5]", "result": "is inhibited"}]}
